Key:
[1] = Serum mycophenolic acid level by commercial assay in mice fed MMF in chow; assay type: in vivo, mouse
Source text: No MPA was detected in the serum of control mice (data not shown).

[2] = system: endothelial nitric oxide synthase (eNOS) expression; conditions: in vitro, cholesterol clamped conditions; cited from earlier work

Row | average serum mycophenolic acid (MPA) level ([1]; high-dose group (MMF 100 mg/kg/day in high-fat chow)) | average serum mycophenolic acid (MPA) level ([1]; low-dose group (MMF 15 mg/kg/day in high-fat chow)) | Structure (SMILES) | upregulation of eNOS expression [2]
1 | 3.65 ± 0.3 mg/L | 1.16 ± 0.09 mg/L | COc1c(C)c2c(c(O)c1C/C=C(\C)CCC(=O)O)C(=O)OC2 [MPA, mycophenolic acid] | –
2 | – | – | CC[C@H](C)C(=O)O[C@H]1C[C@@H](C)C=C2C=C[C@H](C)[C@H](CC[C@@H]3C[C@@H](O)CC(=O)O3)[C@H]21 [lovastatin] | almost fourfold
